This note sets out measurements from US6727076B2 (priority 1995, dated 2004).

Test [1] concerns E. coli strain 6320 (W3110). Format: cell-based. Note: key: '+' indicates that the organism tested was capable of utilizing the carbon source listed; '−' indicates that the organism tested was not capable of utilizing the carbon source listed; 'w' indicates weak positive reactions.
The subject of test [2] is E. coli strain 13673 (O157). The format is cell-based.
Test [3] concerns E. coli strain 14444 (MG1655 xylA). The format is cell-based.
For test [4], the system named is E. coli strain 14443 (MG1655 (FB426)). Format: cell-based. Note: key: '+' indicates that the organism tested was capable of utilizing the carbon source listed; '−' indicates that the organism tested was not capable of utilizing the carbon source listed; 'w' indicates weak positive reactions.
Test [5] deals with E. coli strain 6322 (EMG2 (K12, λF+)). The format is cell-based.
The test system of test [6] is E. coli strain 14445 (MG1655 himA). Format: cell-based.
In test [7] the test system is E. coli strain 13671 (O157:H? gur+). Format: cell-based.
Test [8] concerns E. coli strain 11547 (O157:H7). Format: cell-based.
Test [9] concerns E. coli strain 6321 (MG1655). The format is cell-based. Note: key: '+' indicates that the organism tested was capable of utilizing the carbon source listed; '−' indicates that the organism tested was not capable of utilizing the carbon source listed; 'w' indicates weak positive reactions.
In test [10] the test system is E. coli strain 13675 (O157). The format is cell-based.
The test system of test [11] is E. coli 287 (ATCC #11775). The format is cell-based.
For another test, the system named is S. typhimurium pyrCΔ73. Format: cell-based, Salmonella typhimurium.
Test [12] deals with E. coli MG1655. Format: cell-based.
In a further test the test system is T. harzianum DAOM 190830. The format is cell-based, Trichoderma harzianum.
The subject of test [13] is E. coli MG1655. Format: cell-based. This is another data set of the same source.

Turning to `O=C(O)C[C@@H](O)C(=O)O` [D-malic acid], the carbon source utilization result in test [1], in test [2], in test [3], in [4], in test [5] and in test [6] was “+” throughout. The carbon source utilization result in test [7], in [8] and in test [9] was “+” in each case.

For `CC(O)CO` (stereo not drawn) [1,2-propanediol], the carbon source utilization entry in test [1], in test [2], in test [3], in test [4], in test [5] and in test [10] was “−” each time. Further, the carbon source utilization result in test [6], in test [7], in test [8] and in test [9] was “−” in each case.

For the compound `O=C(O)Cc1ccc(O)cc1` [P-hydroxy phenylacetic acid], the carbon source utilization entry in [1], in test [2], in test [3], in test [4], in test [5] and in test [10] was “−” throughout. The carbon source utilization result in [6], in [7], in [8] and in test [9] was “−” throughout. Also, the “carbon source utilization result” value in test [11] is “negative”.

With `O=C1O[C@@H]([C@H](O)CO)[C@H](O)[C@H]1O` [D-galactonic acid-γ-lactone], the carbon source utilization result in [1] is on record as “−”; in test [2], “−”; in test [3], “+”; in [4] it was “+”; in test [5], “+”; in [10] it was “−”. Moreover, the carbon source utilization entry is recorded as “+” in [6], “−” in test [7], “−” in [8] and “+” in test [9]. For the same compound, the “carbon source utilization, in words” value in [2], in [10], in test [7] and in test [8] was “negative” in each case. In addition, the “carbon source utilization result” value in test [11] is recorded as “positive”.

`OC[C@@H](O)[C@H](O)[C@H](O)[C@@H](O)CO` [Dulcitol]: the carbon source utilization entry is on record as “−” in test [1]; “−” in test [2]; “−” in [3]; “−” in [4]; “−” in test [5]; “+” in test [10]. Moreover, the carbon source utilization entry in test [6] is “−”; in test [7], “+”; in [8], “+”; in test [9], “+”.

Turning to `OC[C@H]1O[C@@H](n2cnc3c(O)ncnc32)[C@H](O)[C@@H]1O` [Inosine], the “growth stimulation by supplement (well color)” value (“growth stimulation” for short) with S. typhimurium pyrCΔ73 is recorded as “turned weakly purple”. Besides, the “suitability as nitrogen source (growth, purple color)” value in the test on E. coli MG1655 [12] is listed as “not suitable”. Also, the “carbon source utilization result” value (in the test on T. harzianum DAOM 190830; in [11]) was “positive” in each case.

With `O=C(O)CC(O)C(=O)O` (racemic) [D,L-malic acid], the carbon source utilization result in [1], in test [2], in [3], in test [4], in test [5] and in test [10] was “+” each time. For the same compound, the carbon source utilization result in [6], in test [7], in test [8] and in test [9] was “+” in each case.

With `O=C(O)C[C@H](O)C(=O)O` [L-malic acid], the carbon source utilization result in test [1], in [2], in test [3], in [4], in [5] and in [10] was “+” throughout. In addition, the carbon source utilization entry in test [6], in test [7], in test [8] and in test [9] was “+” each time.

As to Tween-20, the carbon source utilization entry in test [1], in [3], in test [4] and in test [6] was “−” in each case.

For `CO[C@H]1O[C@H](CO)[C@H](O)[C@H](O)[C@H]1O` [α-methyl galactoside], the carbon source utilization result in [1], in [2], in test [3], in test [4], in [5] and in test [10] was “+” each time. For the same compound, the carbon source utilization result in [6], in test [7], in [8] and in [9] was “+” in each case.

`C[C@H](O)C(=O)O` [L-lactic acid]: the carbon source utilization entry in [1], in test [2], in test [3], in test [4], in [5] and in [10] was “+” each time. For the same compound, the carbon source utilization result in test [6], in [7], in test [8] and in [9] was “+” each time.

Take Maltotriose: the carbon source utilization result is on record as “+” in test [1]; “+” in test [2]; “−” in [3]; “+” in test [4]; “+” in test [5]; “+” in test [10]. Further, the carbon source utilization entry in test [6] is “−”; in test [7], “+”; in test [8] it was “+”; in test [9], “+”. Also, the “carbon source utilization, in words” value in test [3] and in [6] was “negative” in each case.

Turning to Tween-80, the carbon source utilization result in test [3] is “−”; in test [4], “−”; in [6], “−”; in test [9] it was “+”. The “carbon source utilization result” value (with T. harzianum DAOM 190830; in test [11]) was “positive” throughout.

Turning to `Nc1nc2c(ncn2[C@@H]2O[C@H](COP(=O)(O)O)[C@@H](O)[C@H]2O)c(=O)[nH]1` [guanosine 5′-monophosphate], the “growth stimulation” value with S. typhimurium pyrCΔ73 is reported as “turned weakly purple”. In addition, the “suitability as phosphorus source (growth, purple color)” value (“suitability as phosphorus source” for short) with E. coli MG1655 [13] was “positive”.

For the compound `O=c1ccn([C@@H]2O[C@H](COP(=O)(O)O)[C@@H](O)[C@H]2O)c(=O)[nH]1` [uridine 5′-monophosphate], the “growth stimulation” value in the test with S. typhimurium pyrCΔ73 is recorded as “turned purple”. In addition, the “suitability as phosphorus source” value with E. coli MG1655 [13] is given as “positive”.

Take `Nc1ncnc2c1ncn2[C@@H]1O[C@H](CO)[C@@H](O)[C@H]1OP(=O)(O)O` [adenosine-2′-monophosphate]: the “growth stimulation” value in the test on S. typhimurium pyrCΔ73 is listed as “turned weakly purple”. In the test on E. coli MG1655 [13], the “suitability as phosphorus source” value is “positive”.

With `O=c1ccn([C@@H]2O[C@H](CO)[C@@H](OP(=O)(O)O)[C@H]2O)c(=O)[nH]1` [uridine 3′-monophosphate], the “growth stimulation” value in the test on S. typhimurium pyrCΔ73 is on record as “turned purple”. Also, the “suitability as phosphorus source” value with E. coli MG1655 [13] is “positive”.

For `Nc1ncnc2c1ncn2[C@@H]1O[C@H](CO)[C@@H](OP(=O)(O)O)[C@H]1O` [adenosine 3-monophosphate, adenosine 3′-monophosphate], the “growth stimulation” value with S. typhimurium pyrCΔ73 was “turned weakly purple”. In addition, in the test on E. coli MG1655 [13], the “suitability as phosphorus source” value was “positive”.

For the compound `O=C1O[C@H]([C@@H](O)CO)[C@@H](O)[C@@H]1O` [L-galactonic acid γ-lactone], the carbon source utilization result in test [1], in [2], in [3], in test [4], in test [5] and in test [10] was “+” each time. Besides, the carbon source utilization result in [6], in test [7], in [8] and in test [9] was “+” in each case.
